Assay results as given in patent publication US20240247021A1, “CRYSTAL FORMS OF KUDING SAPONIN A COMPOUND, PHARMACEUTICAL COMPOSITION AND USE THEREOF” (SHANGHAI KE PHARMACEUTICAL CO., LTD, priority 2021, published 2024).
Like-named read-outs stand apart in the source and are kept apart here.

Tests used:
[1] = Conditions under which the crystal forms exist stably; assay type: physicochemical
[2] = Hygroscopicity test by dynamic vapor sorption (DVS); assay type: physicochemical; settings: for Degree of hygroscopicity: criteria of Table 12
Protocol: Dynamic vapor sorption (DVS) is a test method for analyzing the moisture sorption performance of a sample and recording the moisture sorption isotherm, and it determines the stability of a compound by identifying its sorption capacity for moisture. Methods for performing dynamic vapor sorption analysis on the crystals are well known to those skilled in the art. In the present invention, the hygroscopicity of the crystal forms A, C, and J of Kudinoside A is determined by using a dynamic vapor sorption instrument, and the specific measurement conditions are shown in Table 7.
About 10 mg of each of the crystal forms A, C, and J obtained in Examples 1-3 was tested for its hygroscopicity using a dynamic vapor sorption (DVS) instrument (test conditions: a temperature of 25° C. and a relative humidity of 0%-80%), and the hygroscopicity of each crystal form was judged using the criteria shown in Table 12 below. For the steps and the judgment criteria of the hygroscopicity test, reference is made to the General Requirement 9103-Guidelines for Hygroscopicity in Pharmacopoeia of the People's Republic of China 2020 (Volume IV).

[3] = Competition experiment of crystal form A and crystal form J in water suspension; assay type: physicochemical; settings: equal mixture of crystal forms A and J suspended in water, stirred at room temperature 3 days; XRPD of wet and dry sample
Protocol: Firstly, an initial mixing sample was prepared: samples of the crystal form A and the crystal form J of Kudinoside A with the equivalent quantity were uniformly mixed, and sampling was carried out for XRPD detection.
Water was added to the sample to form a suspension, which was stirred at room temperature and then centrifuged 3 days later, and sampling was carried out for XRPD detection (wet sample); after drying under vacuum at 30° C., the sample was subjected to XRPD detection (dry sample).

[4] = Thermogravimetric analysis (TGA); assay type: physicochemical; settings: 10 K/min, nitrogen
Text: Thermogravimetric analysis, or TGA for short, refers to a thermal analysis method for measuring the relationship of the mass of a sample to be detected with the change of temperature or time at a programmed temperature, and it is used to study information related to the quality of the sample, such as thermal stability, components of intermediate products possibly generated, etc. It is often used in combination with other thermal analysis methods for comprehensive thermal analysis. Methods for performing thermogravimetric analysis on the crystals are well known to those skilled in the art. In the present invention, the crystal forms A, C, and J of Kudinoside A are determined by using a thermogravimetric analyzer, and the specific measurement conditions are shown in Table 6.

[5] = Accelerated test (40 ± 2° C., humidity 75% ± 5%), 0 month
[6] = Accelerated test (40 ± 2° C., humidity 75% ± 5%), 1 month
[7] = Accelerated test (40 ± 2° C., humidity 75% ± 5%), 3 month
[8] = Accelerated test (40 ± 2° C., humidity 75% ± 5%), 4 month
[9] = Accelerated test (40 ± 2° C., humidity 75% ± 5%), 5 month
[10] = Accelerated test (40 ± 2° C., humidity 75% ± 5%), 6 month
[11] = Long-term test 1 (25 ± 2° C., humidity 60% ± 5%), 0 month
[12] = Long-term test 1 (25 ± 2° C., humidity 60% ± 5%), 1 month
[13] = Long-term test 1 (25 ± 2° C., humidity 60% ± 5%), 3 month
[14] = Long-term test 1 (25 ± 2° C., humidity 60% ± 5%), 4 month
[15] = Long-term test 1 (25 ± 2° C., humidity 60% ± 5%), 6 month
[16] = Long-term test 1 (25 ± 2° C., humidity 60% ± 5%), 9 month
[17] = Long-term test 1 (25 ± 2° C., humidity 60% ± 5%), 12 month
[18] = Long-term test 1 (25 ± 2° C., humidity 60% ± 5%), 24 month
[19] = Long-term test 2 (5 ± 3° C.), 0 month
[20] = Long-term test 2 (5 ± 3° C.), 1 month
[21] = Long-term test 2 (5 ± 3° C.), 3 month
[22] = Long-term test 2 (5 ± 3° C.), 4 month
[23] = Long-term test 2 (5 ± 3° C.), 6 month
[24] = Long-term test 2 (5 ± 3° C.), 9 month
[25] = Long-term test 2 (5 ± 3° C.), 12 month
[26] = Long-term test 2 (5 ± 3° C.), 24 month
[27] = DVS, 25° C., relative humidity 0%-80%

## C[C@@H]1O[C@@H](O[C@H]2[C@H](O[C@H]3CC[C@]4(C)[C@H]5C[C@H](O)C6=C7[C@]8(CC[C@](C)(OC8=O)[C@@]7(C)O)CC[C@@]6(C)[C@]5(C)CC[C@H]4C3(C)C)OC[C@H](O)[C@@H]2O[C@@H]2O[C@H](CO)[C@@H](O)[C@H](O)[C@H]2O)[C@H](O)[C@H](O)[C@H]1O [crystal form A, Kudinoside A]
[5]
  Appearance: White
  Content of Kudinoside A: 100.2 % of the labeled amount
  Content of impurity F (Kudinoside D): 0.09%
  Total content of impurities: 0.09%
[6]
  Appearance: White
  Content of Kudinoside A: 101.7 % of the labeled amount
  Content of impurity F (Kudinoside D): 0.17%
  Total content of impurities: 0.17%
[7]
  Appearance: White
  Content of Kudinoside A: 99.0 % of the labeled amount
  Content of impurity F (Kudinoside D): 0.26%
  Total content of impurities: 0.43%
[8]
  Appearance: White
  Content of Kudinoside A: 98.0 % of the labeled amount
  Content of impurity F (Kudinoside D): 0.29%
  Total content of impurities: 0.52%
[9]
  Appearance: White
  Content of Kudinoside A: 98.9 % of the labeled amount
  Content of impurity F (Kudinoside D): 0.29%
  Total content of impurities: 0.60%
[10]
  Appearance: White
  Content of Kudinoside A: 98.4 % of the labeled amount
  Content of impurity F (Kudinoside D): 0.29%
  Total content of impurities: 0.66%
[11]
  Appearance: White
  Content of Kudinoside A: 100.2 % of the labeled amount
  Content of impurity F (Kudinoside D): 0.09%
  Total content of impurities: 0.09%
[12]
  Appearance: White
  Content of Kudinoside A: 101.4 % of the labeled amount
  Content of impurity F (Kudinoside D): 0.09%
  Total content of impurities: 0.09%
[13]
  Appearance: White
  Content of Kudinoside A: 100.2 % of the labeled amount
  Content of impurity F (Kudinoside D): 0.12%
  Total content of impurities: 0.12%
[14]
  Appearance: White
  Content of Kudinoside A: 99.2 % of the labeled amount
  Content of impurity F (Kudinoside D): 0.13%
  Total content of impurities: 0.13%
[15]
  Appearance: White
  Content of Kudinoside A: 98.3 % of the labeled amount
  Content of impurity F (Kudinoside D): 0.15%
  Total content of impurities: 0.15%
[16]
  Appearance: White
  Content of Kudinoside A: 98.8 % of the labeled amount
  Content of impurity F (Kudinoside D): 0.19%
  Total content of impurities: 0.19%
[17]
  Appearance: White
  Content of Kudinoside A: 99.8 % of the labeled amount
  Content of impurity F (Kudinoside D): 0.19%
  Total content of impurities: 0.19%
[18]
  Appearance: White
  Content of Kudinoside A: 100.2 % of the labeled amount
  Content of impurity F (Kudinoside D): 0.21%
  Total content of impurities: 0.35%
[19]
  Appearance: White
  Content of Kudinoside A: 100.2 % of the labeled amount
  Content of impurity F (Kudinoside D): 0.09%
  Total content of impurities: 0.09%
[20]
  Appearance: White
  Content of Kudinoside A: 101.8 % of the labeled amount
  Content of impurity F (Kudinoside D): 0.08%
  Total content of impurities: 0.08%
[21]
  Appearance: White
  Content of Kudinoside A: 99.9 % of the labeled amount
  Content of impurity F (Kudinoside D): 0.10%
  Total content of impurities: 0.10%
[22]
  Appearance: White
  Content of Kudinoside A: 99.8 % of the labeled amount
  Content of impurity F (Kudinoside D): 0.08%
  Total content of impurities: 0.08%
[23]
  Appearance: White
  Content of Kudinoside A: 98.6 % of the labeled amount
  Content of impurity F (Kudinoside D): 0.09%
  Total content of impurities: 0.09%
[24]
  Appearance: White
  Content of Kudinoside A: 99.2 % of the labeled amount
  Content of impurity F (Kudinoside D): 0.09%
  Total content of impurities: 0.09%
[25]
  Appearance: White
  Content of Kudinoside A: 99.8 % of the labeled amount
  Content of impurity F (Kudinoside D): 0.09%
  Total content of impurities: 0.09%
[26]
  Appearance: White
  Content of Kudinoside A: 101.3 % of the labeled amount
  Content of impurity F (Kudinoside D): 0.08%
  Total content of impurities: 0.08%
[1]
  conditions under which the crystal form exists stably: can exist stably as a dry powder at room temperature
[2]; DVS graph (FIGS. 1d, 2d, 3d)
  weight change when the relative humidity is in the range of 0%-80%: about 12%
[2]; DVS graph (FIGS. 1d, 2d, 3d), judgment criteria of Table 7
  hygroscopicity: hygroscopic
[2]; [27]
  Increase in mass (relative humidity: 0%-80%): 12%
  Degree of hygroscopicity: hygroscopic
[2]; DVS, 25° C., relative humidity 0%-80%, listed as A
  Degree of hygroscopicity: Hygroscopic (The increase in mass is less than 15% but not less than 2%)
[3]
  crystal form conversion: tends to convert to the crystal form J
[4]
  decomposition temperature: about 318 °C
